Assay results: patent US20230416248A1, “COMPOUNDS AND USES THEREOF” (Foghorn Therapeutics Inc., priority 2020, published 2023)
Like-named read-outs stand apart in the source and are kept apart here.

Key:
[1] = target: T1, BRG-1 (Homo sapiens, UniProt P51532); experiment: ATPase catalytic activity of BRG-1, ADP-Glo in vitro biochemical assay; settings: 30 nM BRG-1, 400 μM ATP, read-out: BRG1 IC50
T1 construct: made in house; host or cells: High Five insect cells
Protocol: The ATPase catalytic activity of BRM or BRG-1 was measured by an in vitro biochemical assay using ADP-Glo™ (Promega, V9102). The ADP-Glo™ kinase assay is performed in two steps once the reaction is complete. The first step is to deplete any unconsumed ATP in the reaction. The second step is to convert the reaction product ADP to ATP, which will be utilized by the luciferase to generate luminesce and be detected by a luminescence reader, such as Envision.
Then, following addition of 5 μL of ADP-Glo™ Reagent provided in the kit, the reaction incubates at room temperature for 40 minutes. Then, 10 μL of Kinase Detection Reagent provided in the kit is added to convert ADP to ATP, and the reaction incubates at room temperature for 60 minutes. Finally, luminescence measurement is collected with a plate-reading luminometer, such as Envision.

[2] = target: T2, BRM (Homo sapiens, UniProt P51531); experiment: ATPase catalytic activity of BRM, ADP-Glo in vitro biochemical assay; settings: for IC50: 30 nM BRM, 400 μM ATP; for Ratio* (BRG1 IC50 (μM) divided by BRM IC50 (μM)): selectivity ratio BRG1 IC50 / BRM IC50
T2 construct: made in house; host or cells: High Five insect cells
T2 sequence (P51531 whole entry): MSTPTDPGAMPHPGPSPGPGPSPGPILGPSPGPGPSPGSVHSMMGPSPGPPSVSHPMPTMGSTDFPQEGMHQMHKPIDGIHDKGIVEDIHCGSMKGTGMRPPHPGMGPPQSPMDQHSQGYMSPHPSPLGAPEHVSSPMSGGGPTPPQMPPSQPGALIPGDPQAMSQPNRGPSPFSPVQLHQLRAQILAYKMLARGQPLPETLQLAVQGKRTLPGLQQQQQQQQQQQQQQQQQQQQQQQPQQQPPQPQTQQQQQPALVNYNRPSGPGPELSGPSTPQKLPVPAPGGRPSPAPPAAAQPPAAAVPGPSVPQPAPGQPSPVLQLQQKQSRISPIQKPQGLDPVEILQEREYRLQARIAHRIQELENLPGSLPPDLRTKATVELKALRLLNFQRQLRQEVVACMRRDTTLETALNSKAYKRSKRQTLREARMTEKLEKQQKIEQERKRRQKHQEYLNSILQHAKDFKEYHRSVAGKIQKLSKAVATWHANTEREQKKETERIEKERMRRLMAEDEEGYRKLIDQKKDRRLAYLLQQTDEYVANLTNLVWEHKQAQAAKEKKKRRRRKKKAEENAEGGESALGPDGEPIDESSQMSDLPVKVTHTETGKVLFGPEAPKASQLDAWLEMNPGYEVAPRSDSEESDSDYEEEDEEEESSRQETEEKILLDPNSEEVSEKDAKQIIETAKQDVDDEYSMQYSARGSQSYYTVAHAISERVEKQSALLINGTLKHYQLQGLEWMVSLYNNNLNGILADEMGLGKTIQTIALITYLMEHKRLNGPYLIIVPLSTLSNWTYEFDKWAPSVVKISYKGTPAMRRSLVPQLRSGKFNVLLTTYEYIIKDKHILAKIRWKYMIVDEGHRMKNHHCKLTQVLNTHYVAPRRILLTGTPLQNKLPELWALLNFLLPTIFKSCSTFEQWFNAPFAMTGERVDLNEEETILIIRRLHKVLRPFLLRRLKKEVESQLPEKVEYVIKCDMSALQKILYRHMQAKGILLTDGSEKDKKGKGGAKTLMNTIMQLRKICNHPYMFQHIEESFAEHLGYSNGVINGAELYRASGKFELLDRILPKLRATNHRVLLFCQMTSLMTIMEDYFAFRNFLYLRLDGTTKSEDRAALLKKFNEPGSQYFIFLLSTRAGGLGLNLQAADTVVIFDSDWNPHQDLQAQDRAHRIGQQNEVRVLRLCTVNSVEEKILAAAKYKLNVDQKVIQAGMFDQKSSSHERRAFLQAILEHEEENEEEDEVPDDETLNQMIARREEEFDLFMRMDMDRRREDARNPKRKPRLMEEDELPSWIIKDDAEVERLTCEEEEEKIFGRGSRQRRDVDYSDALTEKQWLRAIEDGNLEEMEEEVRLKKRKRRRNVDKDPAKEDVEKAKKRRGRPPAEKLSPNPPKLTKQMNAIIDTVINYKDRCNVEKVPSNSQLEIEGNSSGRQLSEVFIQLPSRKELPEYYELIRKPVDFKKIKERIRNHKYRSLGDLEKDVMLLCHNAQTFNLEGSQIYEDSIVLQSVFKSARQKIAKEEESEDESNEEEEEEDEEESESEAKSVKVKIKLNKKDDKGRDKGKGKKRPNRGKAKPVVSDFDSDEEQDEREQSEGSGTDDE
In short: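 ADP-Glo luminescence, after depletion of leftover ATP and conversion of ADP, reported the activity. The 1 h room-temperature reaction held 400 μM ATP, 20 nM salmon sperm DNA and 30 nM BRM in 20 mM Tris pH 8, 20 mM MgCl2, 50 mM NaCl, 0.1% Tween-20, 1 mM DTT.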

[3] = ATPase catalytic activity, ADP-Glo

T1 sequence (P51532 whole entry): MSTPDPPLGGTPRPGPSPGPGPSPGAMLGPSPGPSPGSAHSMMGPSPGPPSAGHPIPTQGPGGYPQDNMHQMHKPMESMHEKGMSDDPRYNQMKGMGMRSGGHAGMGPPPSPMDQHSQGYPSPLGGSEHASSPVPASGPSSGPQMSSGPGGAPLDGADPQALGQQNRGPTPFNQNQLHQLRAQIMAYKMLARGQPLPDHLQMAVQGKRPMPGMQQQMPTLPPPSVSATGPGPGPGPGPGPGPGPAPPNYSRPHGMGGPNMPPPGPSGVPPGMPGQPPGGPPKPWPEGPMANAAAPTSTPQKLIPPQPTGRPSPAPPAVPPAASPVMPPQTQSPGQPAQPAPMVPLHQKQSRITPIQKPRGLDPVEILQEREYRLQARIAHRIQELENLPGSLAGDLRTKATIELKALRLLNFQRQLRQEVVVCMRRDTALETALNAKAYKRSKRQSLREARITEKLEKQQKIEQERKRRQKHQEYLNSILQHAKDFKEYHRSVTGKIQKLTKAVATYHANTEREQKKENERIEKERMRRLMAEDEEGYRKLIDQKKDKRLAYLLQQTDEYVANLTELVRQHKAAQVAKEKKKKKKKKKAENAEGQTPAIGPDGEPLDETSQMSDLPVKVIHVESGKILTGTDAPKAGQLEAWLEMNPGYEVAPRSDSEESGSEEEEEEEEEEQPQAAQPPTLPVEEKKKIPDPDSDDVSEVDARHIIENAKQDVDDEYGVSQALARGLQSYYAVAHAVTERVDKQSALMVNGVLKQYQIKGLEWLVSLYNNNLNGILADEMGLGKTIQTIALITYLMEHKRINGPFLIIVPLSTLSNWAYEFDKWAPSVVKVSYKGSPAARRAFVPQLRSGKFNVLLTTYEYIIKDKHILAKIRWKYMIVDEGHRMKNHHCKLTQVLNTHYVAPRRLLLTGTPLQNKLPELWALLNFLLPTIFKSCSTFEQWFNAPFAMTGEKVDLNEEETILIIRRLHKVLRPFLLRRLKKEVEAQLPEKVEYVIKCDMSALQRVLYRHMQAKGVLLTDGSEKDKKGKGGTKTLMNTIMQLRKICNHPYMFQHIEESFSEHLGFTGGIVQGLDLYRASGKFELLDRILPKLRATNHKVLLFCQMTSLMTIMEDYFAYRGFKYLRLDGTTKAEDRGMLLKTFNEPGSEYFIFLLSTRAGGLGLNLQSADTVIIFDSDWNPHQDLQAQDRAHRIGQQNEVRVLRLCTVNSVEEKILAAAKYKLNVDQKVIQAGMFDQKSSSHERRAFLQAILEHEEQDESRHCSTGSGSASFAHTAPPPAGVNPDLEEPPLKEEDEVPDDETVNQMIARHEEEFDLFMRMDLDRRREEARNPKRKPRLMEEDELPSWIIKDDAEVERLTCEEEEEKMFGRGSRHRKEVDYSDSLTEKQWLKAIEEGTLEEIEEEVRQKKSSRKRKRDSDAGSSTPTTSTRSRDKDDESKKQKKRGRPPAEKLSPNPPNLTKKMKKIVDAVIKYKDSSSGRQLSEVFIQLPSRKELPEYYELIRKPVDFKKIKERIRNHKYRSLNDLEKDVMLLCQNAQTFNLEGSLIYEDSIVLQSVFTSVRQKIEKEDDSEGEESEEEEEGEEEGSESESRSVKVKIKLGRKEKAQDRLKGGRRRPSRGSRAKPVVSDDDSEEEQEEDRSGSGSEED

Structure (SMILES) | IC50 ([1]; ADP-Glo ATPase assay) [µM] | IC50 ([2]; ADP-Glo ATPase assay) [µM] | Ratio* (BRG1 IC50 (μM) divided by BRM IC50 (μM)) [2] | Ratio* ([2]; ratio BRG1 IC50 / BRM IC50) | IC50 [1, 3] [µM] | IC50 [2, 3] [µM] | Ratio* ([2]; ratio of BRG1 IC50 to BRM IC50)
O=C(NCc1cc2nc(-c3ccc4c(n3)OCC4)ccc2cn1)c1ccc2c(c1)S(=O)(=O)CCOC2 [Compound 139] | 2.07 | 0.432 | 4.81 |  |  |  | 
CO[C@@H](C)c1cccc(-c2ccc3cnc(CNC(=O)c4ccc5c(c4)S(=O)(=O)CCOC5)cc3n2)n1 [Compound 69] | 2.47 | 0.262 | 9.44 |  |  |  | 
CCN(CC)c1cccc(-c2ccc3cnc(CNC(=O)c4ccc5c(c4)S(=O)(=O)CCOC5)cc3n2)n1 [Compound 83] | 0.135 | 0.0081 | 16.64 |  |  |  | 
O=C(NCc1cc2nc(N3CCOc4cc(F)c(C(F)F)nc43)ccc2cn1)c1ccc2c(c1)S(=O)(=O)CCOC2 [Compound 781] | 0.713 | 0.0279 |  | 25.53 |  |  | 
Cn1ccc(-c2cccc(-c3ccc4cnc(CNC(=O)c5ccc6c(c5)S(=O)(=O)CCOC6)cc4n3)c2)n1 [Compound 244] | 0.337 | 0.0207 | 16.32 |  |  |  | 
O=C(NCc1cc2nc(-c3ccc(OC4CC4)cn3)ccc2cn1)c1ccc2c(c1)S(=O)(=O)CCOC2 [Compound 851] | 2.57 | 0.708 |  | 3.64 |  |  | 
COCc1cc2c(nc1Cl)N(c1ccc3cnc(CNC(=O)c4ccc5c(c4)S(=O)(=O)CCOC5)cc3n1)CCC2 [Compound 660] |  |  |  |  | 0.059 | 0.0072 | 8.17
O=C(NCc1cc2nc(-c3cccc(OC4COC4)c3)ccc2cn1)c1ccc2c(c1)S(=O)(=O)CCOC2 [Compound 242] | 3.17 | 0.286 | 11.06 |  |  |  | 
COCCN(C)c1cccc(-c2ccc3cnc(CNC(=O)c4ccc5c(c4)S(=O)(=O)CCOC5)cc3n2)c1OC [Compound 347] |  |  |  |  | 3.73 | 1.23 | 3.03
O=C(NCc1cc2nc(N3CCOc4cc(N5CCCC5)cnc43)ccc2cn1)c1ccc2c(c1)S(=O)(=O)CCOC2 [Compound 754] | 0.192 | 0.0191 |  | 10.04 |  |  | 
COCCN(CC(C)(F)F)c1cccc(-c2ccc3cnc(CNC(=O)c4ccc5c(c4)S(=O)(=O)CCOC5)cc3n2)n1 [Compound 373] |  |  |  |  | 0.138 | 0.0129 | 10.75
Cc1cnc2c(c1)CCN2c1ccc2cnc(CNC(=O)c3ccc4c(c3)S(=O)(=O)CCOC4)cc2n1 [Compound 656] |  |  |  |  | 0.128 | 0.0122 | 10.50
CCN(CC1COC1)c1cccc(-c2ccc3cnc(CNC(=O)c4ccc5c(c4)S(=O)(=O)CCOC5)cc3n2)n1 [Compound 370] |  |  |  |  | 0.152 | 0.0146 | 10.43
O=C(NCc1cc2nc(N3CCOc4cc(Cl)c(C5CC5)nc43)ccc2cn1)c1ccc2c(c1)S(=O)(=O)CCOC2 [Compound 698] |  |  |  |  | 4.72 | 0.193 | 24.47
C[C@H]1CCc2ccc(-c3ccc4cnc(CNC(=O)c5ccc6c(c5)S(=O)(=O)CCOC6)cc4n3)nc2N1C [Compound 468] |  |  |  |  | 0.191 | 0.0249 | 7.67
CC1Cc2ccc(-c3ccc4cnc(CNC(=O)c5ccc6c(c5)S(=O)(=O)CCOC6)cc4n3)nc2N(C)C1 (stereo not drawn) [Compound 612] |  |  |  |  | 0.35 | 0.0266 | 13.16
CO[C@@H](C)Cn1ccc2c(-c3ccc4cnc(CNC(=O)c5ccc6c(c5)S(=O)(=O)CCOC6)cc4n3)ccnc21 [Compound 449] |  |  |  |  | 0.491 | 0.0349 | 14.08
CC1Cc2ccc(C(=O)NCc3cc4nc(-c5cccc(N6C[C@@H](C)O[C@@H](C)C6)n5)ccc4cn3)cc2S1(=O)=O (stereo partly drawn) [Compound 364] |  |  |  |  | 0.231 | 0.019 | 12.21

Structure (SMILES) | IC50 ([1]; ADP-Glo ATPase assay) [µM] | IC50 ([2]; ADP-Glo ATPase assay) [µM] | Ratio* (BRG1 IC50 (μM) divided by BRM IC50 (μM)) [2] | Ratio* ([2]; ratio BRG1 IC50 / BRM IC50) | IC50 [1, 3] [µM] | IC50 [2, 3] [µM] | Ratio* ([2]; ratio of BRG1 IC50 to BRM IC50)
O=C(NCc1cc2nc(N3CCCc4ncccc43)ccc2cn1)c1ccc2c(c1)S(=O)(=O)CCOC2 [Compound 156] | 1.92 | 0.366 | 5.25 |  |  |  | 
O=C(NCc1cc2nc(-c3cccc(OC4CC4(F)F)n3)ccc2cn1)c1ccc2c(c1)S(=O)(=O)CCOC2 (stereo not drawn) [Compound 427] |  |  |  |  | 0.431 | 0.0473 | 9.12
O=C(NCc1cc2nc(-c3cccc(C4(CF)CC4)n3)ccc2cn1)c1ccc2c(c1)S(=O)(=O)CCOC2 [Compound 120] | 0.469 | 0.0447 | 10.48 |  |  |  | 
O=C(NCc1cc2nc(-c3cncc(C4CC4)n3)ccc2cn1)c1ccc2c(c1)S(=O)(=O)CCCO2 [Compound 302] | 2.35 | 0.277 | 8.50 |  |  |  | 
COc1cc(C(F)(F)F)ccc1-c1ccc2cnc(CNC(=O)c3ccc4c(c3)S(=O)(=O)CCOC4)cc2n1 [Compound 335] |  |  |  |  | 0.288 | 0.0243 | 11.87
O=C(NCc1cc2nc(N3CCOc4cc(C5CC5)ccc43)ccc2cn1)c1ccc2c(c1)S(=O)(=O)CCOC2 [Compound 481] |  |  |  |  | 0.113 | 0.0132 | 8.58
C[C@@H]1CN(c2cccc(-c3ccc4cnc(CNC(=O)c5ccc6c(c5)S(=O)(=O)[C@H](C)C6)cc4n3)n2)C[C@H](C)O1 [Compound 502] |  |  |  |  | 0.12 | 0.008 | 14.99
O=C(NCc1cc2nc(N3CCCc4ccc(C(F)CF)nc43)ccc2cn1)c1ccc2c(c1)S(=O)(=O)CCOC2 (stereo not drawn) [Compound 823] | 1.09 | 0.0613 |  | 17.84 |  |  | 
COc1cc(C2CC2)nc2c1CCCN2c1ccc2cnc(CNC(=O)c3ccc4c(c3)S(=O)(=O)CCOC4)cc2n1 [Compound 771] | 0.172 | 0.0105 |  | 16.35 |  |  | 
COCCn1ncc2c1CCCN2c1ccc2cnc(CNC(=O)c3ccc4c(c3)S(=O)(=O)CCOC4)cc2n1 [Compound 400] |  |  |  |  | 0.478 | 0.0204 | 23.51
CN(C[C@@H]1CCO1)c1cccc(-c2ccc3cnc(CNC(=O)c4ccc5c(c4)S(=O)(=O)CCOC5)cc3n2)n1 [Compound 382] |  |  |  |  | 0.12 | 0.0091 | 13.22
COCc1cc2c(cn1)N(c1ccc3cnc(CNC(=O)c4ccc5c(c4)S(=O)(=O)CCOC5)cc3n1)CCC2 [Compound 821] | 0.959 | 0.0797 |  | 12.03 |  |  | 
C[C@H]1CCOc2c(F)cc(C(=O)NCc3cc4nc(N5CCOc6cccnc65)ccc4cn3)cc2S1(=O)=O [Compound 524] |  |  |  |  | 0.171 | 0.0146 | 11.68
COc1ccnc2c1CCCN2c1ccc2cnc(CNC(=O)c3ccc4c(c3)S(=O)(=O)CCOC4)cc2n1 [Compound 439] |  |  |  |  | 0.0438 | 0.0044 | 10.04
O=C(NCc1cc2nc(N3CCOc4cc(C(F)F)ncc43)ccc2cn1)c1ccc2c(c1)S(=O)(=O)CCOC2 [Compound 777] | 0.981 | 0.074 |  | 13.26 |  |  | 
C/C(F)=C/c1ccc(C(=O)NCc2cc3nc(-c4cccc(N5C[C@@H](C)O[C@@H](C)C5)n4)ccc3cn2)cc1S(C)(=O)=O [Compound 475] |  |  |  |  | 1.68 | 0.215 | 7.79
C[C@H]1COCc2ccc(C(=O)NCc3cc4nc(N5CCOc6cc(F)cnc65)ccc4cn3)cc2S1(=O)=O [Compound 738] | 0.428 | 0.0132 |  | 32.33 |  |  | 
CCc1ccc2c(n1)N(c1ccc3cnc(CNC(=O)c4ccc5c(c4)S(=O)(=O)CCOC5)cc3n1)CCO2 [Compound 658] |  |  |  |  | 0.342 | 0.007 | 48.50
